Assay results as given in ChEMBL document CHEMBL1201862, “PubChem BioAssay data set” (2004).
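Tested at 5 concentrations; 48 h exposure; 96-well plates; endpoints linearly interpolated, else capped at highest concentration. At the GI50, growth is halved.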 Active and inactive are the calls of the source. Cut-off read from the data, not from the text of the source: active = GI50 up to about 1.1 µM and inactive = higher.

Key:
Assay in all cases: NCI-60 cell line screen, 48 h
[1] = tested on: HCT-116
[2] = tested on: SF-539
[3] = tested on: SN12C
[4] = tested on: NCI-H522
[5] = tested on: OVCAR-4
[6] = tested on: RPMI-8226
[7] = tested on: M14
[8] = tested on: HT-29
[9] = tested on: SK-MEL-2
[10] = tested on: HOP-62
[11] = tested on: NCI-H460
[12] = tested on: RXF 393
[13] = tested on: U-251
[14] = tested on: ACHN
[15] = tested on: SF-295
[16] = tested on: IGROV-1

Measured: GI50

CC(=O)Nc1ccc(/C=C/C(=O)c2sc(-n3nc(-c4ccccc4)cc3-c3ccccc3)nc2C)cc1
inactive: [1] > 10 µM | [2] > 10 µM | [3] > 10 µM | [4] 35.9 µM | [5] 78.7 µM | [6] > 10 µM | [7] > 10 µM | [8] 84.7 µM | [9] > 10 µM | [10] > 10 µM | [11] > 10 µM | [12] > 10 µM | [13] > 10 µM | [14] > 10 µM | [15] > 10 µM | [16] > 10 µM

C=CCC12CC(=O)CCC1c1ccc(OC)cc1C2=O (configuration not stated)
inactive: [1] > 100 µM | [2] > 100 µM | [3] > 100 µM | [4] > 100 µM | [5] > 100 µM | [6] > 100 µM | [7] > 100 µM | [8] > 100 µM | [9] > 100 µM | [10] > 100 µM | [11] > 100 µM | [12] > 100 µM | [13] > 100 µM | [14] > 100 µM | [15] > 100 µM | [16] > 100 µM

OCC1CC2C=CCC(C2)C1 (configuration not stated)
inactive: [1] > 100 µM | [2] > 100 µM | [3] > 100 µM | [4] > 100 µM | [5] > 100 µM | [6] > 100 µM | [7] > 100 µM | [8] > 100 µM | [9] > 100 µM | [10] > 100 µM | [11] > 100 µM | [12] > 100 µM | [13] > 100 µM | [14] > 100 µM | [15] > 100 µM | [16] > 100 µM

CCOC(=O)C1(Br)C(c2ccccc2)NC(=O)N(C2OC(COC(=O)c3ccccc3)C(OC(=O)c3ccccc3)C2OC(=O)c2ccccc2)C1(C)Br (configuration not stated)
inactive: [1] 18.2 µM | [2] 38.7 µM | [3] 34 µM | [4] 10.2 µM | [5] 13.9 µM | [6] 9.31 µM | [7] 21 µM | [8] 18.2 µM | [9] 31.5 µM | [10] 38.9 µM | [11] 31 µM | [12] 14.5 µM | [13] 27.8 µM | [14] 30.8 µM | [15] 33.3 µM | [16] 34.9 µM

COc1nc(NC2OCC(O)C(O)C2O)c(NC2OCC(O)C(O)C2O)c(=O)n1C (configuration not stated)
inactive: [1] > 100 µM | [2] > 100 µM | [3] > 100 µM | [4] > 100 µM | [5] > 100 µM | [6] > 100 µM | [7] > 100 µM | [8] > 100 µM | [9] > 100 µM | [10] > 100 µM | [11] > 100 µM | [12] > 100 µM | [13] > 100 µM | [14] > 100 µM | [15] > 100 µM | [16] > 100 µM

CCOC(=O)N[C@@H]1C2CC(=O)C(O2)[C@@H]1OC (some centres not stated)
inactive: [1] > 100 µM | [2] > 100 µM | [3] > 100 µM | [4] > 100 µM | [5] > 100 µM | [6] > 100 µM | [7] > 100 µM | [8] > 100 µM | [9] > 100 µM | [10] > 100 µM | [11] > 100 µM | [12] > 100 µM | [13] > 100 µM | [14] > 100 µM | [15] > 100 µM | [16] > 100 µM

COc1cc(C)c(C)c(OC(=O)c2c(C)c(C)c(OC)c(C)c2OC)c1C
inactive: [1] 4.1 µM | [2] 14.1 µM | [3] 15.7 µM | [4] 1.9 µM | [5] 10.3 µM | [6] 13.6 µM | [7] 6.75 µM | [8] 3.85 µM | [9] 5.04 µM | [10] 15 µM | [11] 3.98 µM | [12] 13 µM | [13] 3.74 µM | [14] 13.4 µM | [15] 3.92 µM | [16] 8.67 µM

Cc1c(Cl)ccc2c1NC(=O)C2(O)CC(=O)c1ccc(Cl)cc1 (configuration not stated)
inactive: [1] 27.5 µM | [2] 65.2 µM | [3] 26.8 µM | [4] > 61.5 µM | [5] 43.7 µM | [6] 30.8 µM | [7] > 100 µM | [8] 35 µM | [9] > 46 µM | [10] 97.3 µM | [11] 29.6 µM | [12] 31.2 µM | [13] 60.8 µM | [14] > 100 µM | [15] 24.8 µM | [16] > 100 µM

COCN(C)c1nc(N(C)C)nc(N(C)C)n1
inactive: [1] > 100 µM | [2] > 100 µM | [3] > 100 µM | [4] 9.06 µM | [5] > 100 µM | [6] > 100 µM | [7] > 100 µM | [8] > 100 µM | [9] > 100 µM | [10] > 100 µM | [11] > 100 µM | [12] 40.3 µM | [13] > 100 µM | [14] > 100 µM | [15] > 100 µM | [16] > 100 µM

CCNC(=O)COc1ccc(Br)cc1Br
inactive: [1] > 100 µM | [2] > 100 µM | [3] > 100 µM | [4] > 100 µM | [5] > 100 µM | [6] > 100 µM | [7] > 100 µM | [8] > 100 µM | [9] 42.9 µM | [10] > 100 µM | [11] > 100 µM | [12] > 100 µM | [13] > 100 µM | [14] > 100 µM | [15] > 100 µM | [16] > 100 µM

C[C@]12CCC[C@H](Cl)C1(O)C[C@H](C(=O)O)CC2 (some centres not stated)
inactive: [1] > 100 µM | [2] > 100 µM | [3] > 100 µM | [4] > 100 µM | [5] > 100 µM | [6] > 100 µM | [7] > 100 µM | [8] > 100 µM | [9] > 100 µM | [10] > 100 µM | [11] > 100 µM | [12] > 100 µM | [13] > 100 µM | [14] > 100 µM | [15] > 100 µM | [16] > 100 µM

Nc1ccc(N)c2c1C(=O)c1c(N)ccc(N)c1C2=O
inactive: [1] > 73.3 µM | [2] 31.8 µM | [3] > 63.5 µM | [4] 27.5 µM | [5] 37.1 µM | [6] > 57.3 µM | [7] > 77.3 µM | [8] > 100 µM | [9] > 84.7 µM | [10] 78.2 µM | [11] > 73.5 µM | [12] 35 µM | [13] 50 µM | [14] 27.5 µM | [15] 70 µM | [16] > 100 µM
